pIC50: −log10 of the molar value.

In the experiment the target is T1, human DPP-IV (Homo sapiens, UniProt P27487).
T1 construct: Human DPP-IV consisting of amino acids 39 to 766 followed by a C-terminal Streptavidin-tag; Streptavidin-tag (C); made in house
T1 sequence (P27487 39-766): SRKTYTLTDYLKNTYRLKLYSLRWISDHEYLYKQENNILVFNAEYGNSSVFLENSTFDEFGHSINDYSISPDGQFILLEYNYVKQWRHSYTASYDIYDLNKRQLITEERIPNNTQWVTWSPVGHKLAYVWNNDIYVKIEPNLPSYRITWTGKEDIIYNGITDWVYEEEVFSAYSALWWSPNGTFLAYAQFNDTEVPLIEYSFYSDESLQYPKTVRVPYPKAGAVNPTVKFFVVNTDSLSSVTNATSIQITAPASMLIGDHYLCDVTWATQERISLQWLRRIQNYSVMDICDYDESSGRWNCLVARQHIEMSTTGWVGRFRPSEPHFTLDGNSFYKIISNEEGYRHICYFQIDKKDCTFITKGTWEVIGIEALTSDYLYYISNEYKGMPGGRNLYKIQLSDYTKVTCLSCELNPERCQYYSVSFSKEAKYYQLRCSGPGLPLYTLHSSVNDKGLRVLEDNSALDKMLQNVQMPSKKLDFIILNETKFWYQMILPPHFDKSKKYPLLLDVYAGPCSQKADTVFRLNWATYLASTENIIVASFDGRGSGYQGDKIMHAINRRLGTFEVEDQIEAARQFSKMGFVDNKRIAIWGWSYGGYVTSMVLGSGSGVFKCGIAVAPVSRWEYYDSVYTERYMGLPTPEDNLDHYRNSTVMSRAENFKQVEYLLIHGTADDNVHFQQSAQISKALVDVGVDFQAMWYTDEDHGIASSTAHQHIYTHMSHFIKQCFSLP
Briefly: Activity assay: inhibitory activity to human DPP-IV, fluorogenic substrate H-Gly-Pro-AMC. Type of experiment: biochemical. Particulars: H-Gly-Pro-AMC 10 μM, room temperature, monitored for 1 hour. As for the experimental part: Various Example compounds were tested for their inhibitory activity to human DPP-IV.
Human DPP-IV consisting of amino acids 39 to 766 followed by a C-terminal Streptavidin-tag was expressed using the baculovirus system and purified to >80% purity. The enzyme was stored in 25 mM Tris buffer, pH 9.0, containing 300 mM NaCl at −80° C.
The fluorogenic substrates H-Gly-Pro-AMC was purchased from Bachem AG (Bubendorf, Switzerland). The substrate was kept as a 5 mM stock solution in DMSO at −20° C. All other chemicals were purchased from Sigma (Buchs, Switzerland).
The assay buffer for the DPP-IV reaction was 25 mM Tris/HCl, pH 7.5, containing 140 mM NaCl, 10 mM KCl and 0.05% (w/v) CHAPS.
The test compounds were dissolved in 90% DMSO/10% H2O (v/v). Serial dilutions of the compounds from 3 mM to 0.03 μM in 90% DMSO/10% H2O (v/v) followed by a 1:33.3 dilution in assay buffer was done in 96-well polypropylene plates using a CyBio Dilus 8-channel pipettor (CyBio AG, Jena, Germany) with tip change after each pipetting step. The compound solutions as well as the substrate and the enzyme solutions were transferred to the assay plates (384-well black Cliniplate; cat. no. 95040020 Labsystems Oy, Finland) by means of a CyBi-Well 96-channel pipettor (CyBio AG, Jena, Germany).
Enzyme kinetics were measured by mixing 10 μl of a 3-fold concentrated substrate solution in assay buffer (final substrate concentration was 10 μM) with 10 μl of the corresponding compound solution. The reactions were initiated by addition of 10 μl of a 3-fold concentrated solution of the enzyme in assay buffer. Final enzyme (active site) concentrations in the assay was […] for DPP-IV. Fluorescence product (AMC) formation was monitored for 1 hour at room temperature at 35 second intervals by measuring the fluorescence emission at 500 nm using an exitation wavelength of 350 nm in a TECAN Ultra fluorescence reader (TECAN, Maennedorf, Switzerland). The fluorescence in each well was excited by one flash per measurement. The Origin software package (Origin 7.5 Mircocal, Northampton, Mass., USA) was used to generate all graphs and to perform the IC50 calculations.
Consider `CS(=O)(=O)c1ccc(CN[C@H]2CC[C@](CN)(c3cccc(Cl)c3)CC2)cc1`, for which the pIC50 is 6.40.
Take `Cc1ccnc([C@]2(CN)CC[C@@H](N3CCn4c(nnc4C(F)(F)F)C3)CC2)c1`: the pIC50 was 6.60.
With `CCOC(=O)N1CCC(N2CC(=O)N([C@H]3CC[C@](CN)(c4cccc(Cl)c4)CC3)CC2=O)CC1`, the pIC50 is 7.00.
As for `NC[C@]1(c2cccc(Cl)c2)CC[C@H](N2C(=O)OC[C@H]2Cc2ccccc2)CC1`, the pIC50 was 6.70.
In the case of `NC[C@]1(c2cccc(Cl)c2)CC[C@H](n2nc(-c3cnn(Cc4ccccc4)c3)ccc2=O)CC1` it was 6.30; in that of `Cn1ccc2cc(C(=O)N[C@H]3CC[C@](CN)(c4cccc(Cl)c4)CC3)ccc21`, 7.30; in that of `Cc1nc(=O)c2c([nH]1)CCC(CN)(c1cccc(Cl)c1)C2` (stereo not drawn), 4.93.
As for `CC1CC(=O)N([C@]2(CN)CC[C@@H](N3CCn4c(nnc4C(F)(F)F)C3)CC2)C1` (stereo partly drawn), the pIC50 is 6.07.
The compound `Cc1cccc(C2(CN)CCC(N3CCn4c(nnc4C(F)(F)F)C3)C2)c1` (stereo not drawn) had a pIC50 of 5.30.
With `NCC1(c2cccc(Cl)c2)CCC(Oc2ccc(Br)cn2)CC1` (stereo not drawn), the negative logarithm of the IC50 (pIC50) was 6.70.
In turn, `NC[C@]1(c2cccc(Cl)c2)CC[C@H](N(Cc2ccn[nH]2)C(=O)c2cccnc2)CC1` had a pIC50 of 6.35.
For `Cc1n[nH]c(C)c1CCn1cc(-c2ccc(=O)n([C@H]3CC[C@](CN)(c4cccc(Cl)c4)CC3)n2)nn1`, the pIC50 was 6.07.

These data come from patent US20130012485A1, “ORGANIC COMPOUNDS” (priority 2006, published 2013).
